Tests used:
Conditions in all cases: 48 h
[1] = system: P12-Ichikawa; assay: AUC of viability dose-response curve (% viability x log10 dose units); higher = less sensitive
How it was run: (§1)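 Leukemia cells adapted to each medium were seeded in 1536-well plates (500 or 1000 cells/well) and given library compounds in DMSO for 48 h at 37°C. The 11 threefold doses spanned 47 μM to 0.79 nM, and CellTiter-Glo One luminescence was normalised per plate to DMSO and cell-free wells before four-parameter log-logistic fitting on log10 dose. Area under the curve was integrated with the trapezoidal rule, scaling curves above full viability and removing curves that failed quality control.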

[2] = system: SEM cells; assay: as above
How it was run: as §1

[3] = system: NOMO1; assay: as above
How it was run: as §1

[4] = system: P12-Ichikawa; assay: cell viability relative to DMSO control; higher = less cytotoxic
How it was run: (§2)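 NOMO1 or SEM (500 cells/well) or P12-Ichikawa (1000 cells/well) leukemia cells were adapted for at least four passages in each medium. They were seeded in 1536-well plates (5 μl) and pin-dosed with library compounds in DMSO over an 11-point threefold series, 47 μM to 0.79 nM. CellTiter-Glo One luminescence was read after 48 h at 37°C. Viability is the per-plate percentage relative to DMSO wells, with cell-free wells as background.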

[5] = system: SEM cells; assay: as above
How it was run: as §2

[6] = system: NOMO1; assay: as above
How it was run: as §2

C[C@@]12OC(=O)[C@@]1(NC(=O)[C@@H]2CCCl)[C@@H](O)[C@H]\3CCC\C=C3
AUC of viability dose-response curve
Conditions | [1] | [2] | [3]
HPLM + 10% dialyzed FBS | 256 | 183 | 243
RPMI 5 mM glucose + 10% FBS | 253 | 182 | 254
RPMI 5 mM glucose + 10% dialyzed FBS | 247 | 177 | 254

cell viability [%]
Conditions | [4] | [5] | [6]
HPLM + 10% dialyzed FBS, 0.000781 µM | 96.4 | 78.2 | 109
HPLM + 10% dialyzed FBS, 0.00234 µM | 100 | 92.7 | 114
HPLM + 10% dialyzed FBS, 0.00702 µM | 104 | 93.6 | 104
HPLM + 10% dialyzed FBS, 0.0211 µM | 107 | 100 | 104
HPLM + 10% dialyzed FBS, 0.0632 µM | 109 | 34.2 | 97.9
HPLM + 10% dialyzed FBS, 0.19 µM | 74.8 | 10 | 51.4
HPLM + 10% dialyzed FBS, 0.569 µM | 6.01 | 6.88 | 9.1
HPLM + 10% dialyzed FBS, 1.71 µM | 5.06 | 6.65 | 6.95
HPLM + 10% dialyzed FBS, 5.12 µM | 3.28 | 4.57 | 4.84
HPLM + 10% dialyzed FBS, 15.4 µM | 2.14 | 3.3 | 2.62
HPLM + 10% dialyzed FBS, 46.1 µM | 0.616 | 2.16 | 1.53
RPMI 5 mM glucose + 10% FBS, 0.000781 µM | 97.4 | 87.5 | 86.2
RPMI 5 mM glucose + 10% FBS, 0.00234 µM | 109 | 90.2 | 94.4
RPMI 5 mM glucose + 10% FBS, 0.00702 µM | 108 | 93.7 | 104
RPMI 5 mM glucose + 10% FBS, 0.0211 µM | 106 | 96.8 | 103
RPMI 5 mM glucose + 10% FBS, 0.0632 µM | 107 | 31.8 | 100
RPMI 5 mM glucose + 10% FBS, 0.19 µM | 69.8 | 8.22 | 66.2
RPMI 5 mM glucose + 10% FBS, 0.569 µM | 7.03 | 7.13 | 11
RPMI 5 mM glucose + 10% FBS, 1.71 µM | 4.69 | 6.4 | 6.39
RPMI 5 mM glucose + 10% FBS, 5.12 µM | 3.15 | 4.56 | 7.27
RPMI 5 mM glucose + 10% FBS, 15.4 µM | 2.13 | 2.53 | 3.01
RPMI 5 mM glucose + 10% FBS, 46.1 µM | 0.774 | 2.01 | 1.15
RPMI 5 mM glucose + 10% dialyzed FBS, 0.000781 µM | 94 | 80.9 | 90.2
RPMI 5 mM glucose + 10% dialyzed FBS, 0.00234 µM | 110 | 92 | 110
RPMI 5 mM glucose + 10% dialyzed FBS, 0.00702 µM | 105 | 91.8 | 106
RPMI 5 mM glucose + 10% dialyzed FBS, 0.0211 µM | 104 | 84 | 96.8
RPMI 5 mM glucose + 10% dialyzed FBS, 0.0632 µM | 108 | 33.3 | 102
RPMI 5 mM glucose + 10% dialyzed FBS, 0.19 µM | 54.4 | 9.46 | 62.7
RPMI 5 mM glucose + 10% dialyzed FBS, 0.569 µM | 6.75 | 7.84 | 11
RPMI 5 mM glucose + 10% dialyzed FBS, 1.71 µM | 4.56 | 7.08 | 5.88
RPMI 5 mM glucose + 10% dialyzed FBS, 5.12 µM | 3.02 | 5.11 | 4.34
RPMI 5 mM glucose + 10% dialyzed FBS, 15.4 µM | 2.27 | 3.72 | 2.85
RPMI 5 mM glucose + 10% dialyzed FBS, 46.1 µM | 0.713 | 2.53 | 1.4

Cn1c(CCCC(=O)O)nc2cc(N(CCCl)CCCl)ccc21
AUC of viability dose-response curve
Conditions | [1] | [2] | [3]
HPLM + 10% dialyzed FBS | 438 | 456 | 452
RPMI 5 mM glucose + 10% FBS | 457 | 414 | 441
RPMI 5 mM glucose + 10% dialyzed FBS | 451 | 447 | 453

COC1=C(OC)C(=O)C(C/C=C(\C)CC/C=C(\C)CC/C=C(\C)CC/C=C(\C)CC/C=C(\C)CC/C=C(\C)CC/C=C(\C)CC/C=C(\C)CC/C=C(\C)CCC=C(C)C)=C(C)C1=O
AUC of viability dose-response curve
Conditions | [1] | [2] | [3]
HPLM + 10% dialyzed FBS | 453 | 442 | 461
RPMI 5 mM glucose + 10% FBS | 435 | 469 | 453
RPMI 5 mM glucose + 10% dialyzed FBS | 461 | 456 | 466

cell viability [%], [5]
Conditions | HPLM + 10% dialyzed FBS | RPMI 5 mM glucose + 10% dialyzed FBS
0.000781 µM | 104 | 104
0.00234 µM | 101 | 129
0.00702 µM | 97.5 | 120
0.0211 µM | 92.4 | 106
0.0632 µM | 129 | 112
0.19 µM | 110 | 124
0.569 µM | 60.3 | 56.4
1.71 µM | 53.3 | 43.4
5.12 µM | 138 | 123
15.4 µM | 128 | 126
46.1 µM | 124 | 120

Source: the supplement of paper PMC11451515
